Test results as given in ChEMBL document CHEMBL4402540, “Structure-Activity Relationship Studies of Small Molecule Modulators of the Staphylococcal Accessory Gene Regulator” (J Med Chem, 2020).
Where a SMILES comes first, the peptide text is derived from it. Bridges are numbered along the chain shown (N, C = ends). [ ]: non-standard residue; d: D form. Dap = NC[C@H](N)C(=O)O

Tests used:
Staphylococcus aureus [1] = experiment: Antibacterial activity against methicillin-resistant Staphylococcus aureus USA300 infected in CD-1 mouse MRSA sepsis model assessed as survival rate at 30 mg/kg, ip after 144 hrs (reference value: 70%); format: functional
Staphylococcus aureus [2] = experiment: Antibacterial activity against methicillin-resistant Staphylococcus aureus infected in BALB/c mouse assessed as reduction in skin ulcer formation at 25 ug, id after 4 days relative to control; format: functional; design: scale not given: the % may be the effect or the level left
Staphylococcus aureus [3] = experiment: Inhibition of AIP biosynthesis in methicillin-resistant Staphylococcus aureus USA300 incubated for 16 hrs by LC-MS analysis; format: functional, organism-based; settings: USA300, 16 h
Staphylococcus aureus [4] = experiment: Antibacterial activity against methicillin-resistant Staphylococcus aureus infected in BALB/c mouse assessed as reduction in skin ulcer formation at 5 ug, id after 4 days relative to control; format: functional; design: scale not given: the % may be the effect or the level left
[5] = Activation of AgrC-1 Staphylococcus epidermidis AH3408 incubated for 24 hrs by fluorescence assay
[6] = Agonist activity at AgrC-3 in Staphylococcus aureus incubated for 60 to 90 mins in presence of AIP agonist by beta-lactamase reporter gene assay
Staphylococcus aureus [7] = experiment: Agonist activity at AgrC-2 in Staphylococcus aureus RN9372 incubated for 60 to 90 mins by beta-lactamase reporter gene assay
[8] = Inhibition of AgrC-1 Staphylococcus aureus RN10829 incubated for 45 mins by beta-lactamase reporter gene assay
[9] = molecular target: T1, Receptor-histidine kinase AgrC (Staphylococcus aureus, UniProt O07911); experiment: Inhibition of AgrC in mid-exponential phase Staphylococcus aureus RN8463 assessed as beta-lactamase activity incubated for 80 mins by spectrophotometric method
T1 sequence (O07911 whole entry): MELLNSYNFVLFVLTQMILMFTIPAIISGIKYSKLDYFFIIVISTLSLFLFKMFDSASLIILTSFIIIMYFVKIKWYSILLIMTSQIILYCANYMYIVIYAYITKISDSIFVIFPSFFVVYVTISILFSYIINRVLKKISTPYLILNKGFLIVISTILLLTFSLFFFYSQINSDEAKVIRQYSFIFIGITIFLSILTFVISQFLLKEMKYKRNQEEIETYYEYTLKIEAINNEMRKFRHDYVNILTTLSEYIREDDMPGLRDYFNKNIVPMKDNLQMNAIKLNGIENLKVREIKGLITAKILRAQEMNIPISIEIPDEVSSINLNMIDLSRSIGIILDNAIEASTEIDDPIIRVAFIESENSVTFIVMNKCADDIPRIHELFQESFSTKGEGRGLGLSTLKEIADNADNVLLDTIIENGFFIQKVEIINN

[10] = Agonist activity at AgrC-4 in Staphylococcus aureus RN9371 incubated for 60 to 90 mins in presence of AIP agonist by beta-lactamase reporter gene assay
[11] = molecular target: T1, Receptor-histidine kinase AgrC; experiment: Inhibition of AgrC in mid-exponential phase Staphylococcus aureus RN6390B assessed as beta-lactamase activity incubated for 80 mins by spectrophotometric method
[12] = Inhibition of AgrC-1 in Staphylococcus aureus RN9222 incubated for 60 to 90 mins in presence of AIP agonist by beta-lactamase reporter gene assay
[13] = molecular target: T2, Receptor-histidine kinase AgrC (Staphylococcus aureus) (UniProt O07911); experiment: Activation of AgrC in early exponential phase Staphylococcus aureus SA502A assessed as beta-lactamase activity incubated for 55 mins by spectrophotometric method
T2 sequence (whole entry): T1 sequence (O07911 whole entry)

[14] = Inhibition of AgrC-1 in Staphylococcus aureus AH1677 incubated for 24 hrs by fluorescence assay
[15] = Drug degradation in ammonium carbonate solution 0.3 mg after 8 hrs after RP-HPLC analysis; format: physicochemical; settings: read-out: Drug degradation
[16] = Inhibition of AgrC-2 in Staphylococcus aureus RN9372 incubated for 60 to 90 mins in presence of AIP agonist by beta-lactamase reporter gene assay
Staphylococcus aureus [17] = experiment: Agonist activity at AgrC-3 in Staphylococcus aureus incubated for 60 to 90 mins by beta-lactamase reporter gene assay
[18] = Inhibition of AgrC-4 in Staphylococcus aureus AH1872 incubated for 24 hrs by fluorescence assay
[19] = Inhibition of AgrC-3 in Staphylococcus aureus AH1747 incubated for 24 hrs by fluorescence assay
[20] = Drug degradation in ammonium carbonate solution 0.3 mg after 72 hrs after RP-HPLC analysis; format: physicochemical; settings: read-out: Drug degradation
[21] = Inhibition of AgrC-2 in Staphylococcus aureus AH430 incubated for 24 hrs by fluorescence assay
[22] = Drug degradation in ammonium carbonate solution 0.3 mg after 24 hrs after RP-HPLC analysis; format: physicochemical; settings: read-out: Drug degradation
Staphylococcus aureus [23] = experiment: Agonist activity at AgrC-1 in Staphylococcus aureus RN9222 incubated for 60 to 90 mins by beta-lactamase reporter gene assay
Staphylococcus aureus [24] = experiment: Agonist activity at AgrC-4 in Staphylococcus aureus RN9371 incubated for 60 to 90 mins by beta-lactamase reporter gene assay
[25] = molecular target: T1, Receptor-histidine kinase AgrC; experiment: Inhibition of AgrC in mid-exponential phase Staphylococcus aureus SA502A assessed as beta-lactamase activity incubated for 80 mins by spectrophotometric method
[26] = molecular target: T2, Receptor-histidine kinase AgrC (Staphylococcus aureus); experiment: Activation of AgrC in early exponential phase Staphylococcus aureus RN6390B assessed as beta-lactamase activity incubated for 55 mins by spectrophotometric method

CCCCCCc1cc(C(=O)COc2ccc(C(C)C)cc2)c(O)cc1O
survival at 30 mg/kg (Staphylococcus aureus [1]): 100%

CCCCC/C=C/C1=C(CO)[C@@H](O)[C@H]2O[C@@]2(C/C=C(\C)C(=O)O)C1=O
Activity (Staphylococcus aureus [2]): 100% | IC50 (Staphylococcus aureus [3]): 2500 nM | Activity (Staphylococcus aureus [4]): 50%

CC(C)[C@H](NC(=O)[C@H](CO)NC(=O)[C@H](C)N)C(=O)N[C@H]1CSC(=O)[C@H](Cc2ccccc2)NC(=O)[C@H](Cc2ccc(O)cc2)NC(=O)[C@H](C)NC(=O)[C@H](C)NC1=O (H-ASVCAAYF; thioester 4-C)
EC50 [5]: 10.3 nM

CC(C)C[C@@H]1NC(=O)[C@H](CO)NC(=O)[C@H](CO)NC(=O)[C@@H](NC(=O)[C@H](C)NC(=O)[C@H](CC(N)=O)NC(=O)[C@@H](NC(=O)CN)C(C)C)CSC(=O)[C@H](Cc2ccccc2)NC1=O (H-GVNACSSLF; thioester 5-C)
IC50 [6]: 1 nM | ED50 (Staphylococcus aureus [7]): 30 nM | IC50 [8]: 12 nM | IC50 [9]: 3.2 nM | IC50 [10]: 86 nM | IC50 [11]: 2.9 nM | IC50 [12]: 40 nM | ED50 [13]: 3.6 nM

CC[C@H](C)[C@H](N)C(=O)N[C@@H](CC(N)=O)C(=O)N[C@H]1CSC(=O)[C@H](CC(C)C)NC(=O)[C@H](CC(C)C)NC(=O)[C@H](Cc2ccccc2)NC(=O)[C@H](CC(=O)O)NC1=O (H-INCDFLL; thioester 3-C)
IC50 [14]: 5.05 nM | degraded at 8 h [15]: 100% | IC50 [10]: 150 nM | IC50 [16]: 6 nM | IC50 [12]: 70 nM | ED50 (Staphylococcus aureus [17]): 26 nM

CC[C@H](C)[C@H](N)C(=O)N[C@@H](CC(N)=O)C(=O)N[C@H]1CNC(=O)[C@H](CC(C)C)NC(=O)[C@H](CC(C)C)NC(=O)[C@H](Cc2ccccc2)NC(=O)[C@H](C)NC1=O (H-IN[Dap]AFLL; lactam 3-C)
IC50 [18]: 0.192 nM | IC50 [19]: 0.0551 nM | IC50 [14]: 1.2 nM | degraded at 72 h [20]: 40% | IC50 [21]: 2.19 nM | degraded at 24 h [22]: 10%

CC[C@H](C)[C@@H]1NC(=O)[C@H](Cc2ccccc2)NC(=O)[C@H](CC(=O)O)NC(=O)[C@@H](NC(=O)[C@@H](NC(=O)[C@H](CO)NC(=O)[C@@H](N)Cc2ccc(O)cc2)[C@@H](C)O)CSC(=O)[C@H](CCSC)NC1=O (H-YSTCDFIM; thioester 4-C)
ED50 (Staphylococcus aureus [23]): 28 nM | ED50 (Staphylococcus aureus [24]): 26000 nM | IC50 [6]: 3 nM | IC50 [9]: 3.1 nM | IC50 [16]: 25 nM | IC50 [25]: 3.4 nM | ED50 [26]: 10.2 nM
